{"source": "paper PMC9767416", "about": "“Discovery of small molecule mechanistic target of rapamycin inhibitors as anti-aging and anti-cancer therapeutics” (Frontiers in Aging Neuroscience, 2022)", "key": {"[1]": {"tested_on": "U87 cells", "test": "Time-lapse microscopy with annexin V staining of proliferating U87", "format": "cell-based, human", "method": "(§1) For auto-monitoring of cells, Incucyte SX1 Live-Cell Analysis System (Sartorius, Göttingen, Germany), located in an incubator maintained at 37°C under a 5% CO2 atmosphere and 95% humidity, was utilized. The images (1,408 × 1,040 pixels at 1.24 microns/pixel) were acquired using a 10× objective lens in phase contrast, red fluorescence (excitation: 585 ± 20 nm, emission: 635 [625, 705] nm, acquisition time: 100 ms) channels every 60 min during 72 h. The first image was acquired 30 min after adding compounds. The images were processed to measure cell confluence using Incucyte software (version 2022A). Annexin V – Dy647, Apronex (diluted 1:1,000) was used for apoptotic cell staining."}, "[2]": {"tested_on": "RPE-1 cells", "test": "Time-lapse microscopy (Incucyte) of proliferating RPE-1", "format": "cell-based, human", "details": "0, 10, 50, 80, 100 μM, 72 h", "method": "as §1"}}}
{"compound": "Nc1ccc(C(=O)Nc2cccc(-c3c[nH]c4ncccc34)c2)cc1O", "note": "[Compound 3, N-(3-(1H-pyrrolo[2,3-b]pyridin-3-yl)phenyl)-4-amino-3-hydroxybenzamide]", "values": [{"measurement": "cell phenotype in time-lapse microscopy", "setting": "[1]; proliferating U87, 100 μM, 72 h", "result": "rapid loss of cell spreading with a lack of mitotic activity and progressively occurring cell death"}, {"measurement": "induction of apoptosis (annexin V staining)", "setting": "[1]; time-lapse microscopy 72 h, 0–100 μM, Figure 5G", "result": "confirmed"}, {"measurement": "effect on cell proliferation (cell confluence, time-lapse)", "setting": "[2]", "result": "showed the effect on RPE-1 cell proliferation"}]}
